This note sets out measurements from PMC11740121 (ACS Omega, 2025).

Molecules are shown by their SMILES.

The target in the assay is PRMT5 (protein arginine methyltransferase 5) (Homo sapiens, UniProt O14744). As to the kind of experiment: SPR with immobilized PRMT5 N-terminal TIM barrel. It is filed as binding.
Chain of PRMT5 (protein arginine methyltransferase 5) (O14744 1-292): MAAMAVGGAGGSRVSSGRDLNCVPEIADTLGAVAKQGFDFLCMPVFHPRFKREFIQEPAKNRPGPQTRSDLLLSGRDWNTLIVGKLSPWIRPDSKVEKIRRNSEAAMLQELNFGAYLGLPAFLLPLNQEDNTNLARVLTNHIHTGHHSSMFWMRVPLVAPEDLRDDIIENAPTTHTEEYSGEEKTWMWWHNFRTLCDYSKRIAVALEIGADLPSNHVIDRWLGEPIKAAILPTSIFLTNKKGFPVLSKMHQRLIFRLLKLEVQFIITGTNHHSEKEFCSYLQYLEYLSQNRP

In general, Kd refers to the equilibrium constant for the complex coming apart. Read a high Kd as weaker binding. `O=C(Cc1csc(-c2ccc(C(F)(F)F)cc2)n1)Nc1ccc2oc(=O)[nH]c2c1` [Z319334062] had a Kd of 21.5 µM.
